Assay results as given in US9828345B2, “Phenylpyrazole derivatives as potent ROCK1 and ROCK2 inhibitors” (BRISTOL-MYERS SQUIBB COMPANY, priority 2013, dated 2017).
Like-named read-outs stand apart in the source and are kept apart here.

Experiments:
ROCK1 = ROCK1 (Homo sapiens, UniProt Q13464); test: ROCK assay (Caliper LABCHIP peptide phosphorylation), ROCK1; type: biochemical; conditions: 5 μM ATP, 1.5 μM peptide substrate
ROCK2 = ROCK2 (Homo sapiens, UniProt O75116); test: ROCK assay (Caliper LABCHIP peptide phosphorylation), ROCK2; type: biochemical; conditions: 5 μM ATP, 1.5 μM peptide substrate
Sequence of ROCK2 (O75116 whole entry, species assumed): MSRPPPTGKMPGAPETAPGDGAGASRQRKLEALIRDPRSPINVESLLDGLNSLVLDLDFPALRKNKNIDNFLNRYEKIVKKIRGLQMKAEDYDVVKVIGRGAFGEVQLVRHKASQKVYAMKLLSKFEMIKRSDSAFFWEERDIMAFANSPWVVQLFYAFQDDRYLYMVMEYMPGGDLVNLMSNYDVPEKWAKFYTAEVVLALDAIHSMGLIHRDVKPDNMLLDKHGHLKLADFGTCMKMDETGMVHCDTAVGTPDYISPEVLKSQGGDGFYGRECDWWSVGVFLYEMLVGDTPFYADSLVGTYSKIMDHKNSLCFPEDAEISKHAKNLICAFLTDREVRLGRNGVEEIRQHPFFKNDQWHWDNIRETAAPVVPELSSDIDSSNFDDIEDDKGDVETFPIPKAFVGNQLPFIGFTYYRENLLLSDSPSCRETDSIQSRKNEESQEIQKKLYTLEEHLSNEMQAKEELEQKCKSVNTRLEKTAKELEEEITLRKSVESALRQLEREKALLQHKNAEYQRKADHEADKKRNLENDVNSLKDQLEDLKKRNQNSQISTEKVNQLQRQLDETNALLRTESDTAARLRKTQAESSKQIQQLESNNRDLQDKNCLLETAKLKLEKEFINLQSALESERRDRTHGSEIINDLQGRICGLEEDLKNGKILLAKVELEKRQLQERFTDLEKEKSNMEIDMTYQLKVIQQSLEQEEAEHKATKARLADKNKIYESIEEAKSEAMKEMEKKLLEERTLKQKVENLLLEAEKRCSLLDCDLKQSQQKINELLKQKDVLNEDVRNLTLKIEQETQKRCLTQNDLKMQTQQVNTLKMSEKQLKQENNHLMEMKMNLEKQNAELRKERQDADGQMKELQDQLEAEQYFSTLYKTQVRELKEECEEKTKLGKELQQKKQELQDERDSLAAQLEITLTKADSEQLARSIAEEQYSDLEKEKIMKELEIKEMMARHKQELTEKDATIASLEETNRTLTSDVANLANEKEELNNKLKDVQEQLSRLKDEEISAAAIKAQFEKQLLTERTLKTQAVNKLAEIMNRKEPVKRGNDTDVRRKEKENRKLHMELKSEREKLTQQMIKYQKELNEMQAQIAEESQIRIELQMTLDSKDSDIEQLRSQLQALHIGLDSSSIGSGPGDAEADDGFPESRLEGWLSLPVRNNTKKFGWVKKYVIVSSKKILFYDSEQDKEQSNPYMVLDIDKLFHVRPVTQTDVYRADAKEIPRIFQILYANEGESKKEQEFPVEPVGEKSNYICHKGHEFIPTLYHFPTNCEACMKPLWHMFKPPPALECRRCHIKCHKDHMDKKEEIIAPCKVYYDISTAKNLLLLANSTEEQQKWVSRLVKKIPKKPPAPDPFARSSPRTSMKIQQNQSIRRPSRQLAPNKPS

[1] = test system: spontaneously hypertensive rat, renal hypertensive rat and deoxycortisone acetate salt hypertensive rat models; conditions: cited from earlier work
neointimal formation = conditions: rats; cited from earlier work
[2] = test system: congestive heart failure in Dahl salt-sensitive rats; conditions: rat, in vivo; cited from earlier work
[3] = test system: IL-1 beta-induced coronary stenosis; conditions: long term treatment; cited from earlier work
rat stroke model = conditions: in vivo; cited from earlier work

Sequence of ROCK1 (Q13464 whole entry, species assumed): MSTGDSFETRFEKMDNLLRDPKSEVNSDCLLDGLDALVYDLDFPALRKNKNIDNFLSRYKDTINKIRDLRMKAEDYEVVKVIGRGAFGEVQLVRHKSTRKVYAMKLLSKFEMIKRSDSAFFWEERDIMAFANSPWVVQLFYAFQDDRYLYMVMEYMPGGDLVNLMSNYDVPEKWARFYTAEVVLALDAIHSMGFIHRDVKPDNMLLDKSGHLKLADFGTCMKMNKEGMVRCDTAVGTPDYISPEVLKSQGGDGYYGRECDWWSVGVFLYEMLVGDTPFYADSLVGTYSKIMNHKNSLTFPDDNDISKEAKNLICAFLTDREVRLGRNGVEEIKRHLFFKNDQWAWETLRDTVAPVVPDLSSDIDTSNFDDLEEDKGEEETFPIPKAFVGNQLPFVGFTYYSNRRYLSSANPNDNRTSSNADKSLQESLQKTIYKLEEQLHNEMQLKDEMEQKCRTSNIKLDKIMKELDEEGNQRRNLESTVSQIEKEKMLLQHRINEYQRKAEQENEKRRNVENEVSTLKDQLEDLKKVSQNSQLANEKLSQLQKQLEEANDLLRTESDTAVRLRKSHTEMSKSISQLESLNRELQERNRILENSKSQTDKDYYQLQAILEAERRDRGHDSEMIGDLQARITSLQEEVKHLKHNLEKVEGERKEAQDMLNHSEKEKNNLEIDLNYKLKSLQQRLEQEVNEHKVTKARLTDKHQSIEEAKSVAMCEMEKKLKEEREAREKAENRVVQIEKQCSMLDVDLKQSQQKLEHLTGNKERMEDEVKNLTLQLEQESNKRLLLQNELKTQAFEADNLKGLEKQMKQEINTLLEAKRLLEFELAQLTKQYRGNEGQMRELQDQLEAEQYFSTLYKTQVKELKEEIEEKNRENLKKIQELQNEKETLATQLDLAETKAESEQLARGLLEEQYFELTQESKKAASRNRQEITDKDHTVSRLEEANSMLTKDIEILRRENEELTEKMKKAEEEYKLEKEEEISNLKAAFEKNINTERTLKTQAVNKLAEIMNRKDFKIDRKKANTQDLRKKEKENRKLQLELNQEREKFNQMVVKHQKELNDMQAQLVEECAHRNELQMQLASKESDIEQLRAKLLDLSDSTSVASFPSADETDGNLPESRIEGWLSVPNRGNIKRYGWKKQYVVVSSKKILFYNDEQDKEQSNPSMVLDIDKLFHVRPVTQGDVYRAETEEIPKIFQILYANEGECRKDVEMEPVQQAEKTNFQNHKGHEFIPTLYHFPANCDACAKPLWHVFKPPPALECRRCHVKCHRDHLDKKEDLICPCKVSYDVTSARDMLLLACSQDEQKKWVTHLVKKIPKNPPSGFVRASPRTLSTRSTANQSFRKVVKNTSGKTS

SMILES	IC50 (ROCK1)	IC50 (ROCK2)	other results
COc1cc(NC(=O)[C@H](N)Cc2ccc3ccccc3c2)ccc1-c1cn[nH]c1 [Example 6, (R)-2-amino-N-(3-methoxy-4-(1H-pyrazol-4-yl)phenyl)-3-(naphthalen-2-yl)propanamide]	0.00878 µM	0.00325 µM	–
COc1cc(NC(=O)[C@@H](N)Cc2csc3ccccc23)ccc1-c1cn[nH]c1 [Example 9, (S)-2-amino-3-(benzo[b]thiophen-3-yl)-N-(3-methoxy-4-(1H-pyrazol-4-yl)phenyl) propanamide]	0.0316 µM	0.0179 µM	–
COc1cc(NC(=O)[C@H](N)Cc2cccc(C(F)(F)F)c2)ccc1-c1cn[nH]c1 [Example 11, (R)-2-amino-N-(3-methoxy-4-(1H-pyrazol-4-yl)phenyl)-3-(3-(trifluoromethyl)phenyl)propanamide]	0.05 µM	0.0143 µM	–
COc1cc(NC(=O)[C@H](N)Cc2ccccc2C(F)(F)F)ccc1-c1cn[nH]c1 [Example 12, (R)-2-amino-N-(3-methoxy-4-(1H-pyrazol-4-yl)phenyl)-3-(2-(trifluoromethyl)phenyl)propanamide]	0.0199 µM	0.0236 µM	–
COc1cc(NC(=O)[C@H](N)Cc2ccc(-c3ccccc3)cc2)ccc1-c1cn[nH]c1 [Example 13, (R)-3-([1,1′-biphenyl]-4-yl)-2-amino-N-(3-methoxy-4-(1H-pyrazol-4-yl)phenyl)propanamide]	0.0684 µM	0.0103 µM	–
COc1cc(NC(=O)[C@H](N)Cc2cc(F)cc(F)c2)ccc1-c1cn[nH]c1 [Example 14, (R)-2-amino-3-(3,5-difluorophenyl)-N-(3-methoxy-4-(1H-pyrazol-4-yl)phenyl) propanamide]	0.0126 µM	0.0134 µM	–
COc1cc(NC(=O)[C@H](N)Cc2ccccc2Cl)ccc1-c1cn[nH]c1 [Example 19, (R)-2-amino-3-(2-chlorophenyl)-N-(3-methoxy-4-(1H-pyrazol-4-yl)phenyl) propanamide]	0.0139 µM	0.0375 µM	–
O=C(Cc1ccccc1Cl)Nc1ccc(-c2cn[nH]c2)cc1OCCN1CCCC1 [Example 23, N-(4-(1H-Pyrazol-4-yl)-2-(2-(pyrrolidin-1-yl)ethoxy)phenyl)-2-(2-chlorophenyl)acetamide]	0.111 µM	0.00851 µM	–
CN(C)CCOc1cc(-c2cn[nH]c2)c(F)cc1NC(=O)[C@H](N)CCc1ccccc1 [Example 27, (R)-2-Amino-N-(2-(2-(dimethylamino)ethoxy)-5-fluoro-4-(1H-pyrazol-4-yl)phenyl)-4-phenylbutanamide]	0.874 µM	0.343 µM	–
N[C@H](CCc1ccccc1)C(=O)Nc1ccc(-c2cn[nH]c2)cc1 [Example 28, (R)—N-(4-(1H-Pyrazol-4-yl)phenyl)-2-amino-4-phenylbutanamide]	0.0425 µM	0.0178 µM	–
O=C(Cc1ccccc1Cl)Nc1ccc(-c2cn[nH]c2)cc1 [Example 29, N-(4-(1H-Pyrazol-4-yl)phenyl)-2-(2-chlorophenyl)acetamide]	0.0196 µM	0.00406 µM	–
COc1cc(NC(=O)[C@H](N)CCc2ccccc2)ccc1-c1c[nH]nc1C [Example 30, (R)-2-Amino-N-(3-methoxy-4-(3-methyl-1H-pyrazol-4-yl)phenyl)-4-phenylbutanamide]	0.232 µM	0.167 µM	–
C[C@@H](N)[C@H]1CC[C@H](C(=O)Nc2ccncc2)CC1 [Example Y-27632, Y-27632]	–	–	blood pressure ([1]; control rats): only a minor effect on blood pressure; blood pressure ([1]; three rat models of hypertension): significantly decrease blood pressure; neointimal formation (neointimal formation): inhibited neointimal formation; ventricular hypertrophy, fibrosis and function [2]: improve ventricular hypertrophy, fibrosis and function
O=S(=O)(c1cccc2cnccc12)N1CCCNCC1 [fasudil]	–	–	coronary constrictive remodeling [3]: promote a regression of coronary constrictive remodeling; coronary stenosis [3]: progressively reduce coronary stenosis; infarct size and neurologic deficit (rat stroke model): reduce both the infarct size and neurologic deficit
